Key:
Assay type in all cases: cell-based, human
[1] = system: YAP, ERα, cyclin D1, Wnt3a, pGSKβ, β-catenin, c-Myc, Bcl-2, c-Yes, p16, p21, MMP2; experiment: Immunoblot of Y192-231E mutant expressing MCF7 with WBP2 knockdown; conditions: WBP2 expression silenced in WBP2 Y192-231E stable transfectant
Description: A: Whole cell lysates from vector, WBP2-WT, WBP2-Y192-231E mutant and WBP2-Y192-231F mutant expressing MCF7 or Y192-231E mutant expressing MCF7 with WBP2 knockdown were used for IB analysis with antibodies indicated. B: Vector, WBP2-WT, WBP2-Y192-231E mutant or WBP2-Y192-231F mutant-expressing MCF7 were co-transfected with TOPFlash (top panel) or ERE-Luciferase (bottom panel) reporter construct. For cells co-transfected ERE-luciferase, they were either left alone or stimulated with 50 ng/ml Wnt3a ligand for 16 hrs. TCF/ERα luciferase activities in various conditions were then assayed. **P<0.01, ***P<0.001, Student's t-test (2-tailed). […] Cell numbers were measured. […]
Whole cell lysates from vector, WBP2-WT, WBP2-Y192-231E mutant and WBP2-Y192-231F mutant expressing MCF7 (A) or Y192-231E mutant expressing MCF7 with WBP2 knockdown (B) were used for IB analysis with antibodies indicated. Their expression levels were quantified in three independent experiments and the averages were presented relative to actin. […] TCF(C)/ER[…](D) luciferase activities in various conditions were then assayed and analyzed in relative to untreated vector control. **P<0.01, ***P<0.001, Student's t-test (2-tailed). […] Cell numbers were measured daily and compared in relative to vehicle treated vector-expressing cells on Day 0. […] Cell numbers were measured and compared in relative to vehicle-treated cells. […]

EGFR = EGFR activation (auto-phosphorylation) in EGF-stimulated HeLa (IB); conditions: 50 ng/ml EGF 5 min, c-Src inhibition, 1 μM AZD0530
Description: A: HeLa were co-transfected with EGFR and V5-tagged WT or individual Y→F mutant of WBP2. 24 hr post-transfection, cells were serum-starved and stimulated with 50 ng/ml EGF for 5 min with/without 1 hr pre-treatment with 10 μM Iressa or 1 μM AZD0530. Whole cell lysates were used for IP/IB analysis with antibodies indicated. B: HeLa were co-transfected with EGFR and V5-tagged WT or individual Y→F mutant of WBP2 in the absence or presence of Src-DN overexpression. C: HeLa were co-transfected with (a) WBP2; (b) WBP2 and EGFR; (c) WBP2 and wild-type (WT) Src; (d) WBP2 and constitutively active (CA) Src; (e) WBP2, EGFR and WT-Src; (f) WBP2, EGFR ad CA-Src; (g) Y192-231F, EGFR and WT-Src. For experiments B and C, 24 hr post-transfection, cells were serum-starved overnight and stimulated with 50 ng/ml EGF for 5 min. Whole cell lysates were used for IP/IB analysis with antibodies indicated. D: HeLa were co-transfected with EGFR and V5-tagged WT or individual Y→F mutant of WBP2. 24 hrpost-transfection, cells were serum-starved and stimulated with 50 ng/ml EGF for 5 min with/without 1 hr pre-treatment with 10 μM Iressa or 1 μM AZD0530. Whole cell lysates were used for IP/IB analysis with antibodies indicated. E: HeLa were co-transfected with EGFR and V5-tagged WT or individual Y→F mutant of WBP2 in the absence or presence of Src-DN-K295M overexpression. […]

WBP2 = experiment: EGF-induced WBP2 tyrosine phosphorylation in HeLa (IP/IB); conditions: HeLa co-transfected with EGFR and WBP2; 50 ng/ml EGF 5 min; 1 hr pre-treatment with 1 μM AZD0530
Description: A: HeLa were co-transfected with EGFR and V5-tagged WT or individual Y→F mutant of WBP2. 24 hr post-transfection, cells were serum-starved and stimulated with 50 ng/ml EGF for 5 min with/without 1 hr pre-treatment with 10 μM Iressa or 1 μM AZD0530. Whole cell lysates were used for IP/IB analysis with antibodies indicated. B: HeLa were co-transfected with EGFR and V5-tagged WT or individual Y→F mutant of WBP2 in the absence or presence of Src-DN overexpression. C: HeLa were co-transfected with (a) WBP2; (b) WBP2 and EGFR; (c) WBP2 and wild-type (WT) Src; (d) WBP2 and constitutively active (CA) Src; (e) WBP2, EGFR and WT-Src; (f) WBP2, EGFR ad CA-Src; (g) Y192-231F, EGFR and WT-Src. For experiments B and C, 24 hr post-transfection, cells were serum-starved overnight and stimulated with 50 ng/ml EGF for 5 min. Whole cell lysates were used for IP/IB analysis with antibodies indicated. D: HeLa were co-transfected with EGFR and V5-tagged WT or individual Y→F mutant of WBP2. 24 hrpost-transfection, cells were serum-starved and stimulated with 50 ng/ml EGF for 5 min with/without 1 hr pre-treatment with 10 μM Iressa or 1 μM AZD0530. Whole cell lysates were used for IP/IB analysis with antibodies indicated. E: HeLa were co-transfected with EGFR and V5-tagged WT or individual Y→F mutant of WBP2 in the absence or presence of Src-DN-K295M overexpression. F: HeLa were cotransfected with (a) WBP2; (b) WBP2 and EGFR; (c) WBP2 and wild-type (WT) Src; (d) WBP2 and constitutively-active (CA) Src-Y529F; (e) WBP2, EGFR and WT-Src; (f) WBP2, EGFR ad CA-Src; (g) Y192-231F, EGFR and WT-Src. For experiments B and C, 24 hr post-transfection, cells were serum-starved overnight and stimulated with 50 ng/ml EGF for 5 min. Whole cell lysates were used for IP/IB analysis with antibodies indicated. G: MCF7 were co-transfected with V5-tagged WBP2 and either negative control siRNA, c-Yes siRNA or c-Src siRNA. For both experiments, 24 hr post-transfection, cells were serum-starved overnight and stimulated with 50 ng/ml EGF for 5 min. Whole cell lysates were used for IP/IB analysis with antibodies indicated. […]

## 5′-AGCAUCCGCUGUCCGAACUCAAUGG-3′ ((5'-AGCAUCCGCUGUCCGAACUCAAUGG-3'; as printed in the source, key not given here) [WBP2 siRNA, small interfering RNA designed to suppress the expression of WBP2]
[1]
  expression of c-Yes, p16, p21 and active MMP2: remained unchanged
  expressions of YAP, ERα, cyclin D1, Wnt3a, pGSKβ, β-catenin, c-Myc: suppressed

## CN1CCN(CCOc2cc(OC3CCOCC3)c3c(Nc4c(Cl)ccc5c4OCO5)ncnc3c2)CC1 [AZD0530]
EGFR
  EGFR activation (EGFR auto-phosphorylation): significant reduction
WBP2
  EGF-induced tyrosine phosphorylation of WBP2: abolished
